Reference: US9629822B2, “Flavonoid based antiviral targets” (UNIVERSITY OF CENTRAL FLORIDA RESEARCH FOUNDATION, INC., priority 2012, dated 2017)
Read-outs that look alike come from different tables or passages of the source.

Columns and labels:
[1] = target: T1, US28 receptor (Human cytomegalovirus, UniProt P69332); details: same Elk1 reporter assay, from ref 13; cited from earlier work
T1 construct: expressed in transfected cells; host or cells: HEK 293T cells, transiently transfected

[2] = target: T1, US28 receptor; experiment: PathDetect trans Elk1 luciferase reporter gene assay in US28-transfected 293T HEK cells; format: cell-based, Human Cytomegalovirus (HCMV); details: for EC50: 293T HEK cells transiently expressing US28, Elk1 reporter, NE = no effect when tested at 10 μM of compound; for Efficacy(%): maximum intrinsic activity from dose-response curve; for Efficacy(%) / Emax: negative = inverse agonism; for Emax: read-out: Efficacy(%), maximum intrinsic activity from dose-response curve; for type of activity on the US28 receptor (agonist / inverse agonist / none), in words: Elk1 reporter, US28-transfected HEK cells
Outline: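 HEK293T cells transiently transfected with Elk1, Luc and US28 vector (empty pcDNA3 for mock) were dosed with compounds in DMEM/1% FBS with 1% DMSO for 20-24 h at 37° C. Bright-Glo luminescence decrease was read; EC50 is halfway between maximal response and no-compound control, by non-linear regression.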

[3] = test system: mock transfected 293T HEK cells; experiment: PathDetect Elk1 luminescence in mock transfected (empty pcDNA3 vector) 293T HEK cells, off-target effect; format: cell-based, human; details: 10 μM vs 1% DMSO control, Equation 1; for activation at 10 µM: Homo sapiens, read-out: Effect(%) on mock cells with each drug at 10 μM
Outline: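 HEK 293T cells were transiently transfected with PathDetect Elk1/luciferase and empty pcDNA3, then exposed to 10 μM compound in medium with 1% FBS and 1% DMSO for 20-24 h at 37 °C. BrightGlo luminescence was compared with the 1% DMSO control: % effect = 100%×(mock/DMSO) − 100%.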

[4] = test system: CHO cells; experiment: CHO cell toxicity, MTS assay, 48 h; format: cell-based, Chinese hamster; details: Cricetulus griseus, CHO, 37° C., MTS reagent, read-out: CHO 48 h IC50 value
Outline: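 CHO cells plated at 10,000 cells/mL, incubated overnight, then exposed to drug (final DMSO <1%) for 48 h at 37 °C, 5% CO2, in triplicate. MTS added for a further 4 h; absorbance read at 490 nm. IC50 taken from relative A490 versus drug concentration.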

[5] = TZMbI assay for cell safety (cell viability and growth, CytoTox Glo); details: human, TZMbI cells, 10 μM, Experiment 1A; read-out: % decrease in viability compared to 0.1% DMSO vehicle based on viable cell luminescence
Procedure: Assays were performed below in accordance with the procedures set forth in The Journal of Immunology, 2006, 176, pp. 6900-905; AIDS Research and Human Retroviruses, 2004, 20:11, pp. 1157-1665.^32,33 TZMbI assays for cell safety were performed to identify potential anti-viral compounds. TZMbI assays for cell safety were performed to identify potential anti-viral compounds per the methods.

[6] = test system: HIV-1 BaL; experiment: Anti-HIV assay (luciferase, HIV-1 BaL infection); format: cell-based; details: 10 μM, Experiment 1B, 2 ng/mL p24 HIV-1 BaL; for inhibition at 10 µM: Human immunodeficiency virus 1, BAL
Outline: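 Cells infected with HIV-1 BaL at 2 ng/mL p24 (MOI approx 0.02) in compound presence. Infection read out by luciferase.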

T1 sequence (P69332 whole entry): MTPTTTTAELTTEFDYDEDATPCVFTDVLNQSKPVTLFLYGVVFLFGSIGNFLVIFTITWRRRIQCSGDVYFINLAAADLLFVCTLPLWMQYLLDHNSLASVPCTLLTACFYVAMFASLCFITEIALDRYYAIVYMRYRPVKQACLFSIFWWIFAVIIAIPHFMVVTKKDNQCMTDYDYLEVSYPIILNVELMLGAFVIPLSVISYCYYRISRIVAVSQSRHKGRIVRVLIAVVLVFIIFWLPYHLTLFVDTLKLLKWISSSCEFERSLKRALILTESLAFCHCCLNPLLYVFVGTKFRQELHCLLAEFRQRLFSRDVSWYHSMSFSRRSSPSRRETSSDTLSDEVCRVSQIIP

| Structure (SMILES) | EC50 [1] [µM] | efficacy [1] [%] | EC50 ([2]; EC50 (μM)) [µM] | Efficacy(%) [2] [%] | Emax [2] [%] | Effect(%) on mock cells with each drug at 10 μM [3] [%] | activation at 10 µM [3] [%] | IC50 [4] [µM] | cytotoxicity at 10 μM [5] [%] | RLU (relative luciferase units) [6] [RLU] | inhibition at 10 µM [6] [%] | melting point [°C] | type of activity on the US28 receptor (agonist / inverse agonist / none), in words [2] | Emax at 10 µM ([2]; read-out: Efficacy(%), 10 μM single concentration) [%] | EC50 [2] [µM] |
| --- | --- | --- | --- | --- | --- | --- | --- | --- | --- | --- | --- | --- | --- | --- | --- |
| N#CC(CCCN1CCC(O)(c2ccc(Cl)cc2)CC1)(c1ccccc1)c1ccccc1 [Compound 5a, VUF2274] | 4.5 | ~22 | – | – | – | – | – | – | – | – | – | – | – | – | – |
| COc1ccc(I)cc1/C=C/C(=O)c1ccccc1O [Compound 8g, (E)-1-(2-hydroxyphenyl)-3-(5-iodo-2-methoxyphenyl)prop-2-en-1-one] | – | – | 5.5 | ~94 | ~94 | 100 | 100 | 6.7 ± 0.7 | 99.7 | 3.3 | 99.6 | 107 to 109 | – | – | – |
| CCOc1ccc(Cl)cc1/C=C/C(=O)c1ccccc1O [Compound 8i, (E)-3-(5-chloro-2-ethoxyphenyl)-1-(2-hydroxyphenyl)prop-2-en-1-one] | – | – | 6.4 | ~76 | ~76 | 33 | 33 | 6.8 ± 0.9 | 87.1 | 130.4 | 86.2 | 61 to 65 | – | – | – |
| COc1ccc(C)cc1/C=C/C(=O)c1ccccc1O [Compound 8j, (E)-1-(2-hydroxyphenyl)-3-(2-methoxy-5-methylphenyl)prop-2-en-1-one] | – | – | – | – | – | – | -4 | 14.2 ± 2.7 | 47 | 345.7 | 63.1 | 69 to 72 | agonist activity | 52 | – |
| COc1cc(OC)c(-c2oc3ccccc3c(=O)c2O)cc1Br [Compound 9e, 2-(5-Bromo-2,4-dimethoxyphenyl)-3-hydroxy-4H-chromen-4-one] | – | – | – | – | – | – | -17 | 18.3 ± 2.5 | -11.9 | 693.9 | 25.9 | 196 to 201 | – | – | > 10 |
| COc1ccc(Br)cc1-c1oc2cccc(OC)c2c(=O)c1O [Compound 9f, 2-(5-Bromo-2-methoxyphenyl)-3-hydroxy-5-methoxy-4H-chromen-4-one] | – | – | – | – | – | – | -1 | 17.3 ± 1.9 | -0.2 | 528.5 | 43.6 | 207 to 213 | – | – | > 10 |
| COc1ccc(I)cc1-c1oc2ccccc2c(=O)c1O [Compound 9g, 3-Hydroxy-2-(5-iodo-2-methoxyphenyl)-4H-chromen-4-one] | – | – | – | – | – | – | -23 | 17.9 ± 1.6 | 15.3 | 358.6 | 61.7 | 153 to 159 | – | – | > 10 |
| COc1ccc(C)cc1-c1oc2ccccc2c(=O)c1O [Compound 9j, 3-hydroxy-2-(2-methoxy-5-methylphenyl)-4H-chromen-4-one] | – | – | 1.78 | – | -38 | 0 | 0 | 54.6 ± 4.2 | 4.8 | 814.0 | 13 | 158 to 164 | inhibited US28 receptor constitutive activity | – | – |
